Measured values as given in US20220220152A1, “BIVALENT ANTAGONISTS OF INHIBITORS OF APOPTOSIS PROTEINS” (Hepagene Therapeutics (HK) Limited, priority 2019, published 2022).
pIC50: −log10 of the molar value.

Key:
cIAP2-BIR3 = molecular target: T1, cIAP2-BIR3 (Homo sapiens, UniProt Q13489); test: cIAP2-BIR3 fluorescence polarization binding assay; settings: FP, probe AbuRPFK-5FAM (SM5F) 5 nM, cIAP2-BIR3 80 nM, 60 min at 25° C.
T1 construct: cIAP2-BIR3; purchased Reaction Biology APT-11-372
How it was run: (§1)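 Fluorescence polarization competition using 5-carboxyfluorescein-labelled peptide probe AbuRPFK-5FAM; protein and compound preincubated 15 min, probe added, then 60 min at 25° C.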

XIAP-BIR3 = molecular target: T2, XIAP-BIR3 (Homo sapiens, UniProt P98170); test: XIAP-BIR3 fluorescence polarization binding assay; settings: FP, probe AbuRPFK-5FAM (SM5F) 5 nM, XIAP-BIR3 40 nM, 60 min at 25° C.
T2 construct: XIAP-BIR3; purchased Reaction Biology APT-11-374
T2 sequence (P98170 241-356 limits assumed): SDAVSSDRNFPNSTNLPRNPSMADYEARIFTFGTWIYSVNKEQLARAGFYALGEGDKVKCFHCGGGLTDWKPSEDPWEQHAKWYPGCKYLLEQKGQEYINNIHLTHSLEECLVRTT
How it was run: as §1

cIAP1-BIR3 = molecular target: T3, cIAP1-BIR3 (Homo sapiens, UniProt Q13490); test: cIAP1-BIR3 fluorescence polarization binding assay; settings: FP, probe AbuRPFK-5FAM (SM5F) 5 nM, cIAP1-BIR3 15 nM, 60 min at 25° C.
T3 construct: cIAP1-BIR3; purchased Reaction Biology APT-11-370
T3 sequence (Q13490 253-363 limits assumed): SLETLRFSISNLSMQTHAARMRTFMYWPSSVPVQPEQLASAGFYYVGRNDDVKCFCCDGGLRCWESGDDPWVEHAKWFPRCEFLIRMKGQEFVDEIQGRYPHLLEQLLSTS
How it was run: as §1

T1 sequence (Q13489 238-349 limits assumed): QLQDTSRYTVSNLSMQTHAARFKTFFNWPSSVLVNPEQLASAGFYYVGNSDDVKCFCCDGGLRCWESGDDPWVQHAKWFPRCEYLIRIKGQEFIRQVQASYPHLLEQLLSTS

For `CN[C@@H](C)C(=O)N[C@H](C(=O)N1CCC[C@H]1C(=O)N[C@@H]1CCCc2c(-c3cccc4c3CCC[C@H]4NC(=O)[C@@H]3CCCN3C(=O)[C@@H](NC(=O)[C@H](C)NC)C3CCOCC3)cccc21)C1CCOCC1` [Compound V-K, (S)-1-((S)-2-((S)-2-(methylamino)propanamido)-2-(tetrahydro-2H-pyran-4-yl)acetyl)-N-((5R,5′R)-5′-((S)-1-((S)-2-((S)-2-(methylamino)propanamido)-2-(tetrahydro-2H-pyran-4-yl)acetyl)pyrrolidine-2-carboxamido)-5,5′,6,6′,7,7′,8,8′-octahydro-[1,1′-binaphthalen]-5-yl)pyrrolidine-2-carboxamide], the pIC50 (cIAP2-BIR3) was 7.00 to 8.00, the pIC50 (XIAP-BIR3) was 7.00 to 8.00 and the pIC50 (cIAP1-BIR3) was 8.00 to 9.00.

“(2S,4S)-1-((S)-2-cyclohexyl-2-((S)-2-(methylamino)propanamido)acetyl)-N—((R)-5-(2-(2-(((R)-5-((2S,4S)-1-((S)-2-cyclohexyl-2-((S)-2-(methylamino)propanamido)acetyl)-4-hydroxypyrrolidine-2-carboxamido)-5,6,7,8-tetrahydronaphthalen-1-yl)oxy)ethoxy) ethoxy)-1,2,3,4-tetrahydmnaphthalen-1-yl)-4-hydroxypyrrolidine-2-carboxamide Formic Acid [Compound II-C]” gave a pIC50 (cIAP2-BIR3) of 7.00 to 8.00, a pIC50 (XIAP-BIR3) of 7.00 to 8.00 and a pIC50 (cIAP1-BIR3) of 8.00 to 9.00.

Work on `CN[C@@H](C)C(=O)N[C@H](C(=O)N1CCC[C@H]1C(=O)N[C@@H]1CCCc2c(OCCCCCOc3cccc4c3CCC[C@H]4NC(=O)[C@@H]3CCCN3C(=O)[C@@H](NC(=O)[C@H](C)NC)C(C)C)cccc21)C(C)C` [Compound I-G, (2S)-1-[(2S)-3-methyl-2-[(2S)-2-(methylamino)propanamido]butanoyl]-N-[(1R)-5-[(5-[[(5R)-5-[(2S)-1-[(2S)-3-methyl-2-[(2S)-2-(methylamino)propanamido]butanoyl]pyrrolidine-2-amido]-5,6,7,8-tetrahydronaphthalen-1-yl]oxy]pentyl)oxy]-1,2,3,4-tetrahydronaphthalen-1-yl]pyrrolidine-2-carboxamide] yielded a pIC50 (cIAP2-BIR3) of 7.00 to 8.00, a pIC50 (XIAP-BIR3) of 7.00 to 8.00 and a pIC50 (cIAP1-BIR3) of 8.00 to 9.00.

Work on `CN[C@@H](C)C(=O)N[C@H](C(=O)N1CCC[C@H]1C(=O)N[C@@H]1CCCc2c(Nc3cccc4c3CCC[C@H]4NC(=O)[C@@H]3CCCN3C(=O)[C@@H](NC(=O)[C@H](C)NC)C(C)C)cccc21)C(C)C` [Compound VI-B, (S)-1-(methyl-L-alanyl-L-valyl)-N—((R)-5-(((R)-5-((S)-1-(methyl-L-alanyl-L-valyl)pyrolidine-2-carboxamido)-5,6,7,8-tetrahydronaphthalen-1-yl)amino)-1,2,3,4-tetrahydronaphthalen-1-yl)pyrrolidine-2-carboxamide] yielded a pIC50 (cIAP2-BIR3) of 7.00 to 8.00, a pIC50 (XIAP-BIR3) of 7.00 to 8.00 and a pIC50 (cIAP1-BIR3) of 8.00 to 9.00.

Compound `CN[C@@H](C)C(=O)N[C@H](C(=O)N1CCC[C@H]1C(=O)N[C@@H]1CCOc2c(-c3cccc4c3OCC[C@H]4NC(=O)[C@@H]3CCCN3C(=O)[C@@H](NC(=O)[C@H](C)NC)C3CC3)cccc21)C1CC1` [Compound V-E, (2S)-1-[(2S)-2-cyclopropyl-2-[(2S)-2-(methylamino)propanamido]acetyl]-N-[(4R)8-[(4R)-4-[(2S)-1-[(2S)-2-cyclopropyl-2-[(2S)-2-(methylamino)propanamido]acetyl]pyrrolidine-2-amido]-3,4-dihydro-2H-1-benzopyran-8-yl]-3,4-dihydro-2H-1-benzopyran-4-yl]pyrrolidine-2-carboxamide] has a pIC50 (cIAP2-BIR3) of 7.00 to 8.00, a pIC50 (XIAP-BIR3) of 7.00 to 8.00 and a pIC50 (cIAP1-BIR3) of 8.00 to 9.00.

Compound `CN[C@@H](C)C(=O)N[C@H](C(=O)N1CCC[C@@H]1C(=O)N[C@@H]1CCCc2ccc(-c3ccc(-c4ccc5c(c4)[C@H](NC(=O)[C@@H]4CCCN4C(=O)[C@@H](NC(=O)[C@H](C)NC)C4CCCCC4)CCC5)cc3)cc21)C1CCCCC1` [Compound III-M, (2S)-1-[(2S)-2-cyclohexyl-2-[(2S)-2-(methylamino)propanamido]acetyl]-N-[(1R)-7-[4-[(8R)-8-[(2R)-1-[(2S)-2-cyclohexyl-2-[(2S)-2-(methylamino)propanamido]acetyl]pyrrolidine-2-amido]-5,6,7,8-tetrahydronaphthalen-2-yl]phenyl]-1,2,3,4-tetrahydronaphthalen-1-yl]pyrrolidine-2-carboxamide] has a pIC50 (cIAP2-BIR3) of 6.00 to 7.00, a pIC50 (XIAP-BIR3) of under 6.00 and a pIC50 (cIAP1-BIR3) of 7.00 to 8.00.

Compound `CC[C@H](NC(=O)[C@H](C)NC)C(=O)N1CCC[C@H]1C(=O)N[C@@H]1CCCc2c(Nc3cccc4c3CCC[C@H]4NC(=O)[C@@H]3CCCN3C(=O)[C@H](CC)NC(=O)[C@H](C)NC)cccc21` [Compound VI-C, (2S,2'S)—N,N′-((1R,1′R)-azanediylbis(1,2,3,4-tetrahydronaphthalene-5,1-diyl))bis(1-((S)-2-((S)-2-(methylamino)propanamido)butanoyl)pyrrolidine-2-carboxamide)] has a pIC50 (cIAP2-BIR3) of 7.00 to 8.00, a pIC50 (XIAP-BIR3) of 7.00 to 8.00 and a pIC50 (cIAP1-BIR3) of 8.00 to 9.00.

`CN[C@@H](C)C(=O)N[C@H](C(=O)N1CCC[C@H]1C(=O)N[C@@H]1CCCc2c(OCC#CCOc3cccc4c3CCC[C@H]4NC(=O)[C@@H]3CCCN3C(=O)[C@@H](NC(=O)[C@H](C)NC)C3CCCCC3)cccc21)C1CCCCC1` [Compound IV-B, (S)-1-((S)-2-Cyclohexyl-2-((S)-2-(methylamino)propanamido)acetyl)-N—((R)-5-(4-((R)-5-((S)-1-((S)-2-cyclohexyl-2-((S)-2-(methylamino)propanamido)acetyl)pyrrolidine-2-carboxamido)-5,6,7,8-tetrahydronaphthalen-1-yloxy)but-2-ynyloxy)-1,2,3,4-tetrahydronaphthalen-1-yl)pyrrolidine-2-carboxamide] gave a pIC50 (cIAP2-BIR3) of 7.00 to 8.00, a pIC50 (XIAP-BIR3) of 7.00 to 8.00 and a pIC50 (cIAP1-BIR3) of 8.00 to 9.00.

For `CN[C@@H](C)C(=O)N[C@H](C(=O)N1CCC[C@H]1C(=O)N[C@@H]1CCCc2c(OC/C=C/COc3cccc4c3CCC[C@H]4NC(=O)[C@@H]3CCCN3C(=O)[C@@H](NC(=O)[C@H](C)NC)C3CCCCC3)cccc21)C1CCCCC1` [Compound IV-A, (2S)-1-[(2S)-2-Cyclohexyl-2-[(2S)-2-(methylamino)propanamido]acetyl]-N-[(1R)-5-[[(2E)-4-[[(5R)-5-[(2S)-1-[(2S)-2-cyclohexyl-2-[(2S)-2-(methylamino)propanamido]acetyl]pyrrolidine-2-amido]-5,6,7,8-tetrahydronaphthalen-1-yl]oxy]but-2-en-1-yl]oxy]-1,2,3,4-tetrahydronaphthalen-1-yl]pyrrolidine-2-carboxamide], the pIC50 (cIAP2-BIR3) was 7.00 to 8.00, the pIC50 (XIAP-BIR3) was 7.00 to 8.00 and the pIC50 (cIAP1-BIR3) was 8.00 to 9.00.

With `CN[C@@H](C)C(=O)N[C@H](C(=O)N1CCC[C@H]1C(=O)N[C@@H]1CCCc2c(-c3cccc(-c4cccc5c4CCC[C@H]5NC(=O)[C@@H]4CCCN4C(=O)[C@@H](NC(=O)[C@H](C)NC)C(C)C)c3)cccc21)C(C)C` [Compound III-E, (2S)-1-[(2S)-3-methyl-2-[(2S)-2-(methylamino)propanamido]butanoyl]-N-[(1R)-5-[3-[(5R)-5-[(2S)-1-[(2S)-3-methyl-2-[(2S)-2-(methylamino)propanamido]butanoyl]pyrrolidine-2-amido]-5,6,7,8-tetrahydronaphthalen-1-yl]phenyl]-1,2,3,4-tetrahydronaphthalen-1-yl]pyrrolidine-2-carboxamide] the pIC50 (cIAP2-BIR3) was 7.00 to 8.00, the pIC50 (XIAP-BIR3) was 8.00 to 9.00 and the pIC50 (cIAP1-BIR3) was 8.00 to 9.00.
